Experimental data from patent US20050197350A1, “Novel quinoline, tetrahydroquinazoline, and pyrimidine derivatives and methods of treatment related to the use thereof” (TAISHO PHARMACEUTICAL CO., LTD., priority 2003, published 2005).

These molecules were tested on MCH receptors (assay: MCH receptor activity class (method not given)). Details: MCH receptor activity class 1-3 (percent of control at 10^-7 M or IC50).
In the case of `Cc1ccc([N+](=O)[O-])c(NC(=O)NC[C@H]2CC[C@@H](Nc3nccc(N(C)C)n3)CC2)c1C` [compound 2443], the class was 1 (Class 1: The value of percent of control at 10^−7 M was less than 40% or the value of IC50 was less than 50 nM.). In the case of `CN(C)c1ccnc(N[C@H]2CC[C@@H](CNC(=O)Nc3c(Br)cc(F)cc3Br)CC2)n1` [compound 2444, N-(2,6-dibromo-4-fluorophenyl)-N′-[(cis-4-{[4-(dimethylamino)pyrimidin-2-yl]amino}cyclohexyl)methyl]urea], the class was 1 (Class 1: The value of percent of control at 10^−7 M was less than 40% or the value of IC50 was less than 50 nM.). With `CN(C)c1ccnc(N[C@H]2CC[C@@H](CNC(=O)Nc3c(Cl)cccc3Cl)CC2)n1` [compound 2445] the class was 1 (Class 1: The value of percent of control at 10^−7 M was less than 40% or the value of IC50 was less than 50 nM.). In the case of `COc1ccc(C)cc1NC(=O)NC[C@H]1CC[C@@H](Nc2nccc(N(C)C)n2)CC1` [compound 2446], the class was 2 (Class 2: The value of percent of control at 10^−7 M was from 40% to 60% or the value of IC′50 was from 50 nM to 200 nM.). `Cc1cccc([N+](=O)[O-])c1NC(=O)NC[C@H]1CC[C@@H](Nc2nccc(N(C)C)n2)CC1` [compound 2447, N-[(cis-4-{[4-(dimethylamino)pyrimidin-2-yl]amino}cyclohexyl)methyl]-N′-(2-methyl-6-nitrophenyl)urea] was tested, and the class was 2 (Class 2: The value of percent of control at 10^−7 M was from 40% to 60% or the value of IC′50 was from 50 nM to 200 nM.). For `CN(C)c1ccnc(N[C@H]2CC[C@@H](CNC(=O)Nc3ccc(F)c(F)c3)CC2)n1` [compound 2448], the class was 1 (Class 1: The value of percent of control at 10^−7 M was less than 40% or the value of IC50 was less than 50 nM.). In the case of `CN(C)c1ccnc(N[C@H]2CC[C@@H](CNC(=O)Nc3cc(F)cc(F)c3)CC2)n1` [compound 2449], the class was 1 (Class 1: The value of percent of control at 10^−7 M was less than 40% or the value of IC50 was less than 50 nM.). For `CN(C)c1ccnc(N[C@H]2CC[C@@H](CNC(=O)Nc3ccc(F)c(Cl)c3)CC2)n1` [compound 2450, N-(3-chloro-4-fluorophenyl)-N′-[(cis-4-{[4-(dimethylamino)pyrimidin-2-yl]amino}cyclohexyl)methyl]urea], the class was 1 (Class 1: The value of percent of control at 10^−7 M was less than 40% or the value of IC50 was less than 50 nM.). For `CN(C)c1nc(N[C@H]2CC[C@@H](CNC(=O)Nc3ccccc3Cl)CC2)nc2c1CCCC2` [compound 2451], the class was 3 (Class 3 The value of percent of control at 10^−7 M was more than 60% or the value of IC50 was more than 200 nM.). `Cc1cccc(C)c1NC(=O)NC[C@H]1CC[C@@H](Nc2nc3c(c(N(C)C)n2)CCCC3)CC1` [compound 2452] was tested, and the class was 1 (Class 1: The value of percent of control at 10^−7 M was less than 40% or the value of IC50 was less than 50 nM.). For `CN(C)c1nc(N[C@H]2CC[C@@H](CNC(=O)Nc3ccc(F)cc3F)CC2)nc2c1CCCC2` [compound 2453], the class was 2 (Class 2: The value of percent of control at 10^−7 M was from 40% to 60% or the value of IC′50 was from 50 nM to 200 nM.). `CCc1cccc(C)c1NC(=O)NC[C@H]1CC[C@@H](Nc2nc3c(c(N(C)C)n2)CCCC3)CC1` [compound 2454] was tested, and the class was 1 (Class 1: The value of percent of control at 10^−7 M was less than 40% or the value of IC50 was less than 50 nM.). With `CN(C)c1nc(N[C@H]2CC[C@@H](CNC(=O)Nc3ccc(F)cc3)CC2)nc2c1CCCC2` [compound 2456] the class was 2 (Class 2: The value of percent of control at 10^−7 M was from 40% to 60% or the value of IC′50 was from 50 nM to 200 nM.). `CSc1ccc(NC(=O)NC[C@H]2CC[C@@H](Nc3nc4c(c(N(C)C)n3)CCCC4)CC2)cc1` [compound 2457] was tested, and the class was 3 (Class 3 The value of percent of control at 10^−7 M was more than 60% or the value of IC50 was more than 200 nM.). With `CN(C)c1nc(N[C@H]2CC[C@@H](CNC(=O)Nc3ccccc3C(F)(F)F)CC2)nc2c1CCCC2` [compound 2458] the class was 3 (Class 3 The value of percent of control at 10^−7 M was more than 60% or the value of IC50 was more than 200 nM.). In the case of `Cc1cc(C)c(NC(=O)NC[C@H]2CC[C@@H](Nc3nc4c(c(N(C)C)n3)CCCC4)CC2)c(C)c1` [compound 2459], the class was 1 (Class 1: The value of percent of control at 10^−7 M was less than 40% or the value of IC50 was less than 50 nM.). For `Cc1ccccc1NC(=O)NC[C@H]1CC[C@@H](Nc2nc3c(c(N(C)C)n2)CCCC3)CC1` [compound 2460], the class was 3 (Class 3 The value of percent of control at 10^−7 M was more than 60% or the value of IC50 was more than 200 nM.). With `CN(C)c1nc(N[C@H]2CC[C@@H](CNC(=O)Nc3c(Cl)cc(Cl)cc3Cl)CC2)nc2c1CCCC2` [compound 2461] the class was 1 (Class 1: The value of percent of control at 10^−7 M was less than 40% or the value of IC50 was less than 50 nM.). For `CN(C)c1nc(N[C@H]2CC[C@@H](CNC(=O)Nc3c(Br)cc(Br)cc3Br)CC2)nc2c1CCCC2` [compound 2462], the class was 1 (Class 1: The value of percent of control at 10^−7 M was less than 40% or the value of IC50 was less than 50 nM.). For `CN(C)c1nc(N[C@H]2CC[C@@H](CNC(=O)Nc3c(F)cc(Br)cc3Br)CC2)nc2c1CCCC2` [compound 2463], the class was 3 (Class 3 The value of percent of control at 10^−7 M was more than 60% or the value of IC50 was more than 200 nM.). `CCc1cccc(CC)c1NC(=O)NC[C@H]1CC[C@@H](Nc2nc3c(c(N(C)C)n2)CCCC3)CC1` [compound 2464] was tested, and the class was 1 (Class 1: The value of percent of control at 10^−7 M was less than 40% or the value of IC50 was less than 50 nM.). `CN(C)c1nc(N[C@H]2CC[C@@H](CNC(=O)Nc3c(Cl)cccc3C(F)(F)F)CC2)nc2c1CCCC2` [compound 2465] was tested, and the class was 1 (Class 1: The value of percent of control at 10^−7 M was less than 40% or the value of IC50 was less than 50 nM.). With `Cc1cccc(Cl)c1NC(=O)NC[C@H]1CC[C@@H](Nc2nc3c(c(N(C)C)n2)CCCC3)CC1` [compound 2466, N-(2-chloro-6-methylphenyl)-N′-[(cis-4-{[4-(dimethylamino)-5,6,7,8-tetrahydroquinazolin-2-yl]amino}cyclohexyl)methyl]urea] the class was 1 (Class 1: The value of percent of control at 10^−7 M was less than 40% or the value of IC50 was less than 50 nM.). `CN(C)c1nc(N[C@H]2CC[C@@H](CNC(=O)NCc3ccccc3Cl)CC2)nc2c1CCCC2` [compound 2467] was tested, and the class was 3 (Class 3 The value of percent of control at 10^−7 M was more than 60% or the value of IC50 was more than 200 nM.). `CCc1cccc(C(C)C)c1NC(=O)NC[C@H]1CC[C@@H](Nc2nc3c(c(N(C)C)n2)CCCC3)CC1` [compound 2468] was tested, and the class was 1 (Class 1: The value of percent of control at 10^−7 M was less than 40% or the value of IC50 was less than 50 nM.). With `CCc1ccccc1NC(=O)NC[C@H]1CC[C@@H](Nc2nc3c(c(N(C)C)n2)CCCC3)CC1` [compound 2469] the class was 3 (Class 3 The value of percent of control at 10^−7 M was more than 60% or the value of IC50 was more than 200 nM.). For `CN(C)c1nc(N[C@H]2CC[C@@H](CNC(=O)Nc3ccccc3I)CC2)nc2c1CCCC2` [compound 2470], the class was 3 (Class 3 The value of percent of control at 10^−7 M was more than 60% or the value of IC50 was more than 200 nM.). In the case of `Cc1cccc(C(C)C)c1NC(=O)NC[C@H]1CC[C@@H](Nc2nc3c(c(N(C)C)n2)CCCC3)CC1` [compound 2471], the class was 2 (Class 2: The value of percent of control at 10^−7 M was from 40% to 60% or the value of IC′50 was from 50 nM to 200 nM.). For `CC(C)c1ccccc1NC(=O)NC[C@H]1CC[C@@H](Nc2nc3c(c(N(C)C)n2)CCCC3)CC1` [compound 2472], the class was 3 (Class 3 The value of percent of control at 10^−7 M was more than 60% or the value of IC50 was more than 200 nM.). `Cc1c(NC(=O)NC[C@H]2CC[C@@H](Nc3nc4c(c(N(C)C)n3)CCCC4)CC2)cccc1[N+](=O)[O-]` [compound 2473] was tested, and the class was 3 (Class 3 The value of percent of control at 10^−7 M was more than 60% or the value of IC50 was more than 200 nM.). For `CCCc1ccccc1NC(=O)NC[C@H]1CC[C@@H](Nc2nc3c(c(N(C)C)n2)CCCC3)CC1` [compound 2474], the class was 3 (Class 3 The value of percent of control at 10^−7 M was more than 60% or the value of IC50 was more than 200 nM.). In the case of `Cc1cccc(C(C)(C)C)c1NC(=O)NC[C@H]1CC[C@@H](Nc2nc3c(c(N(C)C)n2)CCCC3)CC1` [compound 2475, N-(2-tert-butyl-6-methylphenyl)-N′-[(cis-4-{[4-(dimethylamino)-5,6,7,8-tetrahydroquinazolin-2-yl]amino}cyclohexyl)methyl]urea], the class was 1 (Class 1: The value of percent of control at 10^−7 M was less than 40% or the value of IC50 was less than 50 nM.). For `CN(C)c1nc(N[C@H]2CC[C@@H](CNC(=O)Nc3ccccc3C(C)(C)C)CC2)nc2c1CCCC2` [compound 2476], the class was 2 (Class 2: The value of percent of control at 10^−7 M was from 40% to 60% or the value of IC′50 was from 50 nM to 200 nM.). In the case of `Cc1c(Cl)cccc1NC(=O)NC[C@H]1CC[C@@H](Nc2nc3c(c(N(C)C)n2)CCCC3)CC1` [compound 2477], the class was 2 (Class 2: The value of percent of control at 10^−7 M was from 40% to 60% or the value of IC′50 was from 50 nM to 200 nM.). `CN(C)c1nc(N[C@H]2CC[C@@H](CNC(=O)Nc3c(F)cc(Br)cc3F)CC2)nc2c1CCCC2` [compound 2478] was tested, and the class was 3 (Class 3 The value of percent of control at 10^−7 M was more than 60% or the value of IC50 was more than 200 nM.). For `CN(C)c1nc(N[C@H]2CC[C@@H](CNC(=O)Nc3ccc(Cl)cc3C(F)(F)F)CC2)nc2c1CCCC2` [compound 2479], the class was 3 (Class 3 The value of percent of control at 10^−7 M was more than 60% or the value of IC50 was more than 200 nM.). In the case of `CN(C)c1nc(N[C@H]2CC[C@@H](CNC(=O)Nc3ccc(C#N)cc3)CC2)nc2c1CCCC2` [compound 2480], the class was 3 (Class 3 The value of percent of control at 10^−7 M was more than 60% or the value of IC50 was more than 200 nM.). In the case of `CN(C)c1nc(N[C@H]2CC[C@@H](CNC(=O)NC(c3ccccc3)c3ccccc3)CC2)nc2c1CCCC2` [compound 2481], the class was 3 (Class 3 The value of percent of control at 10^−7 M was more than 60% or the value of IC50 was more than 200 nM.).
